Experimental data published in patent publication US10300052B2, “Methods for increasing CFTR activity” (THE UAB RESEARCH FOUNDATION, priority 2012, dated 2019).

System: porcine trachea CFTR−/−
Assay: μOCT imaging of airway epithelial function in porcine trachea, CFTR-/- animals
Conditions: sequential ivacaftor 10 μM, forskolin 100 nM, acetylcholine 100 μM in bath, 37° C. (FIG. 7G)
From the text: FIGS. 7A-7H show the effects of CFTR activators on airway epithelial function in intact porcine trachea by μOCT. FIGS. 7A-7B show representative μOCT images for a CFTR−/− (FIG. 7A) and CFTR+/+ (FIG. 7B) animal. FIGS. 7C-7F, respectively, show ASL depth (FIG. 7C), PCL depth (FIG. 7D), CBF (FIG. 7E) and MCT (FIG. 7F) measurements derived from μOCT images from CFTR−/− and CFTR+/+ animals. FIGS. 7G and 7H show the response of epithelial functional parameters, namely ASL depth and MCT in CFTR−/− (FIG. 7G) and CFTR+/+(FIG. 7H) animals in response to sequential pharmacologic intervention by ivacaftor (10 μM), forskolin (100 nM) and acetylcholine (100 μM).
To further investigate the role of CFTR activators in modulating airway epithelial cell function, CFTR activators were studied in combination with porcine trachea. In this example, porcine trachea from animals having a mutated CFTR (CFTR (−/−) and from animals having a WT-CFTR (CFTR+/+) were evaluated for ASL depth, PCL depth, CBF and MCT. The results are shown in FIGS. 7A-7H.
FIGS. 7G and 7H show the response of epithelial functional parameters, namely ASL depth, CBF and MCT in CFTR−/− and CFTR+/+ animals in response to sequential pharmacologic intervention by ivacaftor (10 μM), forskolin (100 nM) and acetylcholine (100 μM); in this experiment, acetylcholine served as a positive control to induce glandular extrusion in CF tissue). In these experiments, agonists were added to the bath solution and all experiments were conducted under physiological conditions (37° C. and 100% humidity). […] In contrast to FIG. 7G, ASL depth, CBF and MCT were all increased in response to ivacaftor treatment in CFTR+/+ animals, consistent with the results described above for human tissue.
Normal piglet tracheas were obtained from Exemplar Genetics (Sioux Center, Iowa). Tissue were dissected from one-day-old piglets and shipped on wet ice in DMEM. A modified protocol based on airway tissue handling and preparation methods developed by Ballard et al. (Am J Physiol Lung Cell Mol Physiol 298: L270-276, 2010) was employed. Tracheas were immersed in 80 mL Ringer bicarbonate solution (KRB) baths at room temperature and slowly warmed to 37° C. After four hours of pretreatment, the tracheas were removed from the KRB. Accessible mucus and liquid were aspirated from the airway lumens and the tracheal ends were cannulated so that the serosal surface was bathed in KRB [29] without contacting the mucosal surface, as previously described (Ballard et al., Am J Physiol Lung Cell Mol Physiol 298: L270-276, 2010; Martens, et al., Am J Physiol Lung Cell Mol Physiol 301: L236-246, 2011). Tracheas were allowed to equilibrate in KRB bubbled with 95% 02 and 5% CO2 at 37° C. and the luminal side exposed to conditioned air at 100% humidity for 2 hours prior to mOCT imaging (Sleigh et al., Comp Biochem Physiol A Comp Physiol 94: 359-364, 1989).
The μOCT system is a spectral-domain OCT implementation with several improvements to standard OCT that yield high resolution in both lateral and axial directions. The general layout and axial resolution characterization have been described (Liu et al., PLOSOne, 8(1), E54473-2013). A super-continuum source (Fianium SC450) provides the high-bandwidth, short coherence length light necessary for high axial resolution ([…]). A typical OCT system includes an interferometer with the reference and sample arms intersecting at a beamsplitter. The beamsplitter is replaced in μOCT with a 45 degree rod mirror, which apodizes the sample beam by introducing a circular obscuration in the center to achieve a balance of good lateral resolution (2 μm) and long depth of focus (0.2 mm). Custom software is employed to control the galvanometer scanning motors while acquiring spectral data from the line camera. […]

C=C[C@@]1(C)CC(=O)[C@]2(O)[C@@]3(C)[C@@H](O)CCC(C)(C)[C@@H]3[C@H](O)[C@H](OC(C)=O)[C@@]2(C)O1 [forskolin]
no response: ASL depth response | CBF response | MCT response
